Source: patent US20230374038A1, “MODULATORS OF CYSTIC FIBROSIS TRANSMEMBRANE CONDUCTANCE REGULATOR” (VERTEX PHARMACEUTICALS INCORPORATED, priority 2020, published 2023)
pEC50: −log10 of the molar value.

Molecular target: CFTR (Homo sapiens, UniProt P13569)
Assay: Membrane Potential Dye, Enteroid Assay B
Assay type: cell-based
Conditions: for pEC50: read-out: Ent. B EC50
Description: Base medium (ADF+++) consisted of Advanced DMEM/Ham's F12, 2 mM Glutamax, 10 mM HEPES, 1 µg/mL penicillin/streptomycin.
Intestinal enteroid maintenance medium (IEMM) consisted of ADF+++, 1× B27 supplement, 1× N2 supplement, 1.25 mM N-acetyl cysteine, 10 mM Nicotinamide, 50 ng/mL hEGF, 10 nM Gastrin, 1 pg/mL hR-spondin-1, 100 ng/mL hNoggin, TGF-b type 1 inhibitor A-83-01, 100 μg/mL Primocin, […] P38 MAPK inhibitor SB202190.
Bath 1 Buffer consisted of 1 mM MgCl2, 160 mM NaCl, 4.5 mM KCl, 10 mM HEPES, 10 mM Glucose, 2 mM CaCl2).
Chloride Free Buffer consisted of 1 mM Magnesium Gluconate, 2 mM Calcium Gluconate, 4.5 mM Potassium Gluconate, 160 mM Sodium Gluconate, 10 mM HEPES, 10 mM Glucose.
Bath1 Dye Solution consisted of Bath 1 Buffer, 0.04% Pluronic F127, […] Methyl Oxonol, 30 μM CaCCinh-A01, 30 μM Chicago Sky Blue.
Chloride Free Dye Solution consisted of Chloride Free Buffer, 0.04% Pluronic F127, 20 μM Methyl Oxonol, 30 μM CaCCinh-A01, 30 μM Chicago Sky Blue.
Chloride Free Dye Stimulation Solution consisted of Chloride Free Dye Solution, 10 μM forskolin, 100 μM IBMX, and 300 nM Compound III.
Human intestinal epithelial enteroid cells were obtained from the Hubrecht Institute for Developmental Biology and Stem Cell Research, Utrecht, The Netherlands and expanded in T-Flasks as previously described (Dekkers J F, Wiegerinck C L, de Jonge H R, Bronsveld I, Janssens H M, de Winter-de Groot K M, Brandsma A M, de Jong N W M, Bijvelds M J C, Scholte B J, Nieuwenhuis E E S, van den Brink S, Clevers H, van der Ent C K, Middendorp S and M Beekman J M. A functional CFTR assay using primary cystic fibrosis intestinal organoids. Nat Med. 2013 July; 19(7):939-45.).
Cells were recovered in cell recovery solution, collected by centrifugation at 650 rpm for 5 min at 4° C., resuspended in TryPLE and incubated for 5 min at 37° C. Cells were then collected by centrifugation at 650 rpm for 5 min at 4° C. and resuspended in IEMM containing 10 μM ROCK inhibitor (RI). The cell suspension was passed through a 40 μm cell strainer and resuspended at 1×10^6 cells/mL in IEMM containing 10 μM RI. Cells were seeded at 5000 cells/well into multi-well plates and incubated for overnight at 37° C., 95% humidity and 5% CO2 prior to assay.
Enteroid cells were incubated with test compound in IEMM for 18-24 hours at 37° C., 95% humidity and 5% CO2. […] Briefly, cells were washed 5 times in Bath 1 Buffer. Bath 1 Dye Solution was added and the cells were incubated for 25 min at room temperature. Following dye incubation, cells were washed 3 times in Chloride Free Dye Solution. Chloride transport was initiated by addition of Chloride Free Dye Stimulation Solution and the fluorescence signal was read for 15 min. […] Chloride transport was then expressed as a percentage of the chloride transport following treatment with 1 μM (14S)-8-[3-(2-{Dispiro[2.0.2.1]heptan-7-yl}ethoxy)-1H-pyrazol-1-yl]-12,12-dimethyl-2λ^6-thia-3,9,11,18,23-pentaazatetracyclo[17.3.1.111,14.05,10]tetracosa-1(22),5,7,9,19(23),20-hexaene-2,2,4-trione, 3 μM (R)-1-(2,2-difluorobenzo[d][1,3]dioxol-5-yl)-N-(1-(2,3-dihydroxypropyl)-6-fluoro-2-(1-hydroxy-2-methylpropan-2-yl)-1H-indol-5-yl)cyclopropanecarboxamide and 300 nM acute N-[2,4-bis(1,1-dimethylethyl)-5-hydroxyphenyl]-1,4-dihydro-4-oxoquinoline-3-carboxamide triple combination control (% Activity).

CFTR, sequence (P13569 with tags, fused parts or gaps DEL508-508): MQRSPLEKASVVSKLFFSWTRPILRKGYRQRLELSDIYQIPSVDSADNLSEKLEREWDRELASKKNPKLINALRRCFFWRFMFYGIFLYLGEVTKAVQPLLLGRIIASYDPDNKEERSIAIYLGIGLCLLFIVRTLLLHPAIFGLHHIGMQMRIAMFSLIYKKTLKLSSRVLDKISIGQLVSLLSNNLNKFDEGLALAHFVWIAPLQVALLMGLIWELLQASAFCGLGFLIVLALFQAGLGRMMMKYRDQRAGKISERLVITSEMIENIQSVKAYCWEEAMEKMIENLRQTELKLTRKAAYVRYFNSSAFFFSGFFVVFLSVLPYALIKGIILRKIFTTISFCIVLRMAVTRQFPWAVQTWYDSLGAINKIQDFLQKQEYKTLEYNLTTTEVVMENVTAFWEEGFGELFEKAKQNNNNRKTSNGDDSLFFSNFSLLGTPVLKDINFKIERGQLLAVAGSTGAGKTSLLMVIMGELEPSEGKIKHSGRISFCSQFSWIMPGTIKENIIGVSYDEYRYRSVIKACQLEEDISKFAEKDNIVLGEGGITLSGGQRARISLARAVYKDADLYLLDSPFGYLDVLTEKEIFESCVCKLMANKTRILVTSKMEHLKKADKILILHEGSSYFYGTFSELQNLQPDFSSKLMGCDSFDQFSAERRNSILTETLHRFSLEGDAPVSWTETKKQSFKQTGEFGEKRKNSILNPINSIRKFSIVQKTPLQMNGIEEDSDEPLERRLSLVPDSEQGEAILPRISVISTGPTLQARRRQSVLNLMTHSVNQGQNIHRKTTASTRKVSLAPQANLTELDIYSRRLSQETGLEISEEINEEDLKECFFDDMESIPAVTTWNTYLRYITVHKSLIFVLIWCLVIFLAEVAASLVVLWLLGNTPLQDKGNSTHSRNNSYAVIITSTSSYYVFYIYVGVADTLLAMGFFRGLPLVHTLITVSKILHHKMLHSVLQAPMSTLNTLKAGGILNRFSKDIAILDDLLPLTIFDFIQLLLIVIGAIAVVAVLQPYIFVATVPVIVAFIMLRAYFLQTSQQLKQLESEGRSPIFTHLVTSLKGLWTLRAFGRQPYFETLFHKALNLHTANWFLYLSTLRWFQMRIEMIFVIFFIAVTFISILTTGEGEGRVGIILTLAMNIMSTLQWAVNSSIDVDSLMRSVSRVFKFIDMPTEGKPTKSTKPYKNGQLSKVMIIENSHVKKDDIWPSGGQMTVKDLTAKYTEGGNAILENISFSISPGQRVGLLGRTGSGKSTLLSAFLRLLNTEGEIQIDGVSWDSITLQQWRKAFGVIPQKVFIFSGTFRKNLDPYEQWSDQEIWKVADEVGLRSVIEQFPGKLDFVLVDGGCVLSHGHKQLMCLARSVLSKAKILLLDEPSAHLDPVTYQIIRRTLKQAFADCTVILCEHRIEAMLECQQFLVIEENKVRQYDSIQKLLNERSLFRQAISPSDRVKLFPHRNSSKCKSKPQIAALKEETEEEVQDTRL

| Ent. B Max Activity | pEC50 | SMILES |
| --- | --- | --- |
| +++ (+++ is >60%) | > 6.00 | COc1c2nc(nc1-c1c(C)cccc1C)NS(=O)(=O)c1cccc(c1)C(=O)N(C1CC3(CC3)C1)[C@H](CC(C)C)CO2 [Compound 179] |
| +++ (+++ is >60%) | > 6.00 | Cc1cccc(C)c1-c1nc2nc(c1C)OC[C@@H](CC1(C(F)(F)F)CC1)N(C1CC3(CC(NC(=O)OC(C)C)C3)C1)C(=O)c1cccc(c1)S(=O)(=O)N2 (stereo in doubt) [Compound 87] |
| +++ (+++ is >60%) | > 6.00 | Cc1cccc(C)c1-c1nc2nc(c1C)OC[C@@H](CC1(C(F)(F)F)CC1)N(C1CC3(CC(NC(=O)OC(C)(C)C)C3)C1)C(=O)c1cccc(c1)S(=O)(=O)N2 (stereo in doubt) [Compound 97] |
| ++ (++ is 30-60%) | > 6.00 | Cc1cccc(C)c1-c1nc2nc(c1C#N)OC[C@@H](CC(C)C)N(C1CC3(CC3)C1)C(=O)c1cccc(c1)S(=O)(=O)N2 [Compound 174] |
| +++ (+++ is >60%) | > 6.00 | Cc1cccc(C)c1-c1nc2nc(c1F)OC[C@@H](CC(C)C)N(C1CC3(CC3)C1)C(=O)c1cccc(c1)S(=O)(=O)N2 [Compound 175] |
| +++ (+++ is >60%) | > 6.00 | Cc1cccc(C)c1-c1nc2nc(c1C)OC[C@@H](CC(C)C)N([C@H]1C[C@@]3(C[C@H](N(C)C)C3)C1)C(=O)c1cccc(c1)S(=O)(=O)N2 (single isomer, unassigned) [Compound 54] |
| +++ (+++ is >60%) | > 6.00 | Cc1cccc(C)c1-c1nc2nc(c1C)OC[C@@H](CC1(C(F)(F)F)CC1)N(C1CC3(CC(NC(=O)OC(C)(C)C)C3)C1)C(=O)c1cccc(c1)S(=O)(=O)N2 (stereo in doubt) [Compound 98] |
| +++ (+++ is >60%) | > 6.00 | COC(=O)NC1CC2(C1)CC(N1C(=O)c3cccc(c3)S(=O)(=O)Nc3nc(c(C)c(-c4c(C)cccc4C)n3)OC[C@H]1CC(C)C)C2 (stereo in doubt) [Compound 69] |
| + (+ is <30%) |  | Cc1cccc(C)c1-c1nc2nc(c1C(=O)O)OC[C@@H](CC(C)C)N(C1CC3(CC3)C1)C(=O)c1cccc(c1)S(=O)(=O)N2 [Compound 168, (11R)-6-(2,6-Dimethylphenyl)-11-isobutyl-2,2,13-trioxo-12-spiro[2.3]hexan-5-yl-9-oxa-2λ^6-thia-3,5,12,19-tetrazatricyclo[12.3.1.14,8]nonadeca-1(18),4(19),5,7,14,16-hexaene-7-carboxylic acid] |

Continued, molecule first:

| SMILES | Ent. B Max Activity | pEC50 |
| --- | --- | --- |
| Cc1cccc(C)c1-c1nc2nc(c1-c1cnn(C)c1)OC[C@@H](C)NC(=O)c1cccc(c1)S(=O)(=O)N2 [Compound 146] | + (+ is <30%) |  |
| Cc1cccc(C)c1-c1nc2nc(c1C)OCCNC(=O)c1cccc(c1)S(=O)(=O)N2 [Compound 35, 6-(2,6-Dimethylphenyl)-7-methyl-9-oxa-2λ^6-thia-3,5,12,19-tetraazatricyclo[12.3.1.14,8]nonadeca-1(18),4,6,8(19),14,16-hexaene-2,2,13-trione] | ++ (++ is 30-60%) | 4.52 to 5.52 |
| Cc1cccc(C)c1-c1nc2nc(c1C)OC[C@@H](CC(C)(C)C)N(C1CC3(CC3)C1)C(=O)c1cccc(c1)S(=O)(=O)N2 [Compound 101] | +++ (+++ is >60%) | > 6.00 |
| Cc1cccc(C)c1-c1nc2nc(c1C)OC[C@@H](CC(C)(C)C(F)(F)F)N(C1CC3(CCNCC3)C1)C(=O)c1cccc(c1)S(=O)(=O)N2 [Compound 157, (11R)-12-{7-Azaspiro[3.5]nonan-2-yl}-6-(2,6-dimethylphenyl)-7-methyl-11-(3,3,3-trifluoro-2,2-dimethylpropyl)-9-oxa-2λ^6-thia-3,5,12,19-tetraazatricyclo[12.3.1.14,8]nonadeca-1(17),4(19),5,7,14(18),15-hexaene-2,2,13-trione] | +++ (+++ is >60%) | > 6.00 |
| COc1ccc(-c2c3nc(nc2-c2c(C)cccc2C)NS(=O)(=O)c2cccc(c2)C(=O)NC[C@@H](C)O3)cc1 [Compound 130] | +++ (+++ is >60%) | > 6.00 |
| Cc1cccc(C)c1-c1nc2nc(c1-c1ccccn1)O[C@H](C)CNC(=O)c1cccc(c1)S(=O)(=O)N2 [Compound 154] | + (+ is <30%) | 4.52 to 5.52 |
| Cc1cccc(C)c1-c1nc2nc(c1C1=CCOCC1)O[C@H](C)CNC(=O)c1cccc(c1)S(=O)(=O)N2 [Compound 152] | ++ (++ is 30-60%) | 4.52 to 5.52 |
| Cc1cccc(C)c1-c1nc2nc(c1C)OC[C@@H](CCC(C)(C)O)N(CCCC(C)(C)O)C(=O)c1cccc(c1)S(=O)(=O)N2 [Compound 109] | ++ (++ is 30-60%) | 4.52 to 5.52 |
| COC1CC(N2C(=O)c3cccc(c3)S(=O)(=O)Nc3nc(c(C)c(-c4c(C)cccc4C)n3)OC[C@H]2CC(C)(C)C)C1 (stereo partly shown) [Compound 84] | +++ (+++ is >60%) | > 6.00 |
| Cc1cccc(C)c1-c1nc2nc(c1C)OC[C@@H](CC(C)(C)O)N(CCCC(C)(C)O)C(=O)c1cccc(c1)S(=O)(=O)N2 [Compound 110] | + (+ is <30%) |  |
| COCCN1CCC2(CC1)CC(N1C(=O)c3cccc(c3)S(=O)(=O)Nc3nc(c(OC)c(-c4c(C)cccc4C)n3)OC[C@H]1CC(C)C)C2 [Compound 166, (11R)-6-(2,6-dimethylphenyl)-11-isobutyl-7-methoxy-12-[7-(2-methoxyethyl)-7-azaspiro[3.5]nonan-2-yl]-2,2-dioxo-9-oxa-2λ^6-thia-3,5,12,19-tetrazatricyclo[12.3.1.14,8]nonadeca-1(18),4(19),5,7,14,16-hexaen-13-one] | +++ (+++ is >60%) | > 6.00 |
| Cc1cccc(C)c1-c1nc2nc(c1-c1cnn(CC(C)C)c1)OC[C@@H](C)NC(=O)c1cccc(c1)S(=O)(=O)N2 [Compound 124, (11R)-6-(2,6-Dimethylphenyl)-7-(1-isobutylpyrazol-4-yl)-11-methyl-2,2-dioxo-9-oxa-2λ^6-thia-3,5,12,19-tetrazatricyclo[12.3.1.14,8]nonadeca-1(18),4(19),5,7,14,16-hexaen-13-one] | ++ (++ is 30-60%) | 4.52 to 5.52 |
| Cc1cccc(C)c1-c1nc2nc(c1-c1ccncc1)O[C@H](C)CNC(=O)c1cccc(c1)S(=O)(=O)N2 [Compound 132] | + (+ is <30%) |  |
| Cc1cccc(C)c1-c1nc2nc(c1C)OC[C@@H](CC(C)C)N([C@H]1C[C@@]3(C[C@H](NC(=O)OC(C)C)C3)C1)C(=O)c1cccc(c1)S(=O)(=O)N2 (single isomer, unassigned) [Compound 52] | +++ (+++ is >60%) | > 6.00 |
| Cc1cccc(C)c1-c1nc2nc(c1/C=C/C(C)(C)C)OC[C@@H](CC(C)C)NC(=O)c1cccc(c1)S(=O)(=O)N2 [Compound 126, (11R)-7-[(1E)-3,3-dimethylbut-1-en-1-yl]-6-(2,6-dimethylphenyl)-11-(2-methylpropyl)-9-oxa-2λ^6-thia-3,5,12,19-tetraazatricyclo[12.3.1.14,8]nonadeca-1(17),4,6,8(19),14(18),15-hexaene-2,2,13-trione] | +++ (+++ is >60%) | > 6.00 |
| COc1ccccc1-c1c2nc(nc1-c1c(C)cccc1C)NS(=O)(=O)c1cccc(c1)C(=O)NC[C@@H](C)O2 [Compound 131] | +++ (+++ is >60%) | 5.52 to 6.00 |
